Assay results reported in the supplement of paper PMC9013687.

Assays:
[1] = test system: Danio rerio embryo; details: exposure time: 4 dpf
Protocol: (§1)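 Zebrafish embryos (UFZ-OBI strain) were exposed from 2 hpf for 48 h (2 dpf) or 96 h (4 dpf) at 28 °C; spontaneous tail coiling was scored at 25 hpf. Morphological features from automated image analysis (FishInspector), heart rate and locomotor response were fitted with drc models. Quantal endpoints were dichotomised at 2.5 SD from controls and fitted with a log-logistic model; heart rate, pigmentation and STC were normalised to the replicate control mean. Betamethasone was tested as betamethasone dipropionate, diflorasone as diflorasone diacetate.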

[2] = test system: Danio rerio embryo; assay: EC10 Eye size_Decrease; higher = less potent
Protocol: as §1

[3] = test system: Danio rerio embryo; assay: EC10 Pigmentation increase; higher = less potent; details: exposure time: 4 dpf
Protocol: as §1

[4] = test system: Danio rerio embryo; assay: EC10 Head size_Decrease; higher = less potent
Protocol: as §1

[5] = test system: Danio rerio embryo; assay: EC50 Eye size_Decrease
Protocol: as §1

[6] = test system: Danio rerio embryo; assay: EC20 Lack of SB; higher = less potent; details: exposure time: 4 dpf
Protocol: as §1

[7] = test system: Danio rerio embryo; assay: EC20 Pigmentation increase; higher = less potent; details: exposure time: 4 dpf
Protocol: as §1

[8] = test system: Danio rerio embryo; assay: EC20 STC increase; higher = less potent; details: exposure time: 25 h
Protocol: as §1

[9] = test system: Danio rerio embryo; assay: EC10 Lack of SB; higher = less potent; details: exposure time: 4 dpf
Protocol: as §1

[10] = test system: Danio rerio embryo; assay: EC50 Head size_Decrease
Protocol: as §1

[11] = test system: Danio rerio embryo; assay: EC20 Eye size_Decrease; higher = less potent
Protocol: as §1

[12] = test system: Danio rerio embryo; assay: EC20 Heart rate; higher = less potent
Protocol: as §1

[13] = test system: Danio rerio embryo; assay: EC20 Head size_Decrease; higher = less potent
Protocol: as §1

[14] = test system: Danio rerio embryo
Protocol: as §1

[15] = test system: Danio rerio embryo; assay: EC10 STC increase; higher = less potent; details: exposure time: 25 h
Protocol: as §1

[16] = test system: Danio rerio embryo; assay: EC10 Heart rate; higher = less potent
Protocol: as §1

[17] = test system: Danio rerio embryo; details: exposure time: 2 dpf
Protocol: as §1

[18] = test system: Danio rerio embryo; assay: EC10 Otolith; higher = less potent; details: exposure time: 2 dpf
Protocol: as §1

[19] = test system: Danio rerio embryo; assay: EC50 Head trunk angle_Decrease; details: exposure time: 2 dpf
Protocol: as §1

[20] = test system: Danio rerio embryo; assay: EC10 Head trunk angle_Decrease; higher = less potent; details: exposure time: 2 dpf
Protocol: as §1

[21] = test system: Danio rerio embryo; assay: EC20 Pigmentation decrease; higher = less potent; details: exposure time: 2 dpf
Protocol: as §1

[22] = test system: Danio rerio embryo; assay: EC20 Otolith; higher = less potent; details: exposure time: 2 dpf
Protocol: as §1

[23] = test system: Danio rerio embryo; assay: EC10 Pigmentation decrease; higher = less potent; details: exposure time: 2 dpf
Protocol: as §1

[24] = test system: Danio rerio embryo; assay: EC20 Head trunk angle_Decrease; higher = less potent; details: exposure time: 2 dpf
Protocol: as §1

[25] = test system: Danio rerio embryo; assay: EC20 STC bell shape; higher = less potent; details: exposure time: 25 h
Protocol: as §1

[26] = test system: Danio rerio embryo; assay: EC10 STC bell shape; higher = less potent; details: exposure time: 25 h
Protocol: as §1

[27] = test system: Danio rerio embryo; assay: EC10 LMR ligth decrease; higher = less potent; details: exposure time: 4 dpf
Protocol: as §1

[28] = test system: Danio rerio embryo; assay: EC20 STC decrease; higher = less potent; details: exposure time: 25 h
Protocol: as §1

[29] = test system: Danio rerio embryo; assay: EC20 LMR ligth decrease; higher = less potent; details: exposure time: 4 dpf
Protocol: as §1

[30] = test system: Danio rerio embryo; assay: EC10 STC decrease; higher = less potent; details: exposure time: 25 h
Protocol: as §1

[31] = test system: Danio rerio embryo; assay: EC50 Mandibular arch distance_Decrease; details: exposure time: 4 dpf
Protocol: as §1

[32] = test system: Danio rerio embryo; assay: EC10 Mandibular arch distance_Decrease; higher = less potent; details: exposure time: 4 dpf
Protocol: as §1

[33] = test system: Danio rerio embryo; assay: EC20 Mandibular arch distance_Decrease; higher = less potent; details: exposure time: 4 dpf
Protocol: as §1

| SMILES | EC50 Lack of SB [1] | EC10 Eye size Decrease ([2]; exposure time: 2 dpf) | EC10 Eye size Decrease ([2]; exposure time: 4 dpf) | EC10 Head size Decrease ([4]; exposure time: 2 dpf) | EC50 Eye size Decrease ([5]; exposure time: 2 dpf) | EC50 Eye size Decrease ([5]; exposure time: 4 dpf) | EC20 Lack of SB [6] | EC10 Lack of SB [9] | EC50 Head size Decrease ([10]; exposure time: 2 dpf) | EC20 Eye size Decrease ([11]; exposure time: 2 dpf) | EC20 Eye size Decrease ([11]; exposure time: 4 dpf) | EC20 Heart rate ([12]; exposure time: 2 dpf) | EC20 Heart rate ([12]; exposure time: 4 dpf) | EC20 Head size Decrease ([13]; exposure time: 2 dpf) | EC10 Heart rate ([16]; exposure time: 2 dpf) | EC10 Heart rate ([16]; exposure time: 4 dpf) | EC50 Pigmentation decrease [17] | EC50 Head trunk angle Decrease [19] | EC20 Pigmentation decrease [21] | EC10 Pigmentation decrease [23] | other results |
| --- | --- | --- | --- | --- | --- | --- | --- | --- | --- | --- | --- | --- | --- | --- | --- | --- | --- | --- | --- | --- | --- |
| O=C(O)CCc1nc(-c2ccccc2)c(-c2ccccc2)o1 [Oxaprozin] | 10.5 µM | 53.1 µM | 20.6 µM | 10.8 µM | 78.1 µM | 26.7 µM | 8.73 µM | 7.85 µM | 26.6 µM | 61.2 µM | 22.7 µM | 52.1 µM | 29.1 µM | 15.1 µM | 28 µM | 23 µM | – | – | – | – | EC10 Pigmentation increase [3]: 29.2 µM; EC10 Head size Decrease ([4]; exposure time: 4 dpf): 12.4 µM; EC20 Pigmentation increase [7]: 31 µM; EC20 STC increase [8]: 12.4 µM; EC50 Head size Decrease ([10]; exposure time: 4 dpf): 43.4 µM; EC20 Head size Decrease ([13]; exposure time: 4 dpf): 19.7 µM; EC50 Heart rate ([14]; exposure time: 2 dpf): 150 µM; EC10 STC increase [15]: 6.23 µM |
| CCCCOC(=O)[C@@H](C)Oc1ccc(Oc2ccc(C(F)(F)F)cn2)cc1 [fluazifop-p-butyl] | 1.65 µM | 1.03 µM | 0.781 µM | 3.19 µM | 3.96 µM | 1.85 µM | 0.991 µM | 0.734 µM | 6.88 µM | 1.69 µM | 1.07 µM | – | – | 4.24 µM | – | – | 9.58 µM | 15.5 µM | 4.35 µM | 2.74 µM | EC10 Otolith [18]: 4.73 µM; EC10 Head trunk angle Decrease [20]: 1.74 µM; EC20 Otolith [22]: 6.11 µM; EC20 Head trunk angle Decrease [24]: 3.89 µM |
| Cc1ccc(-c2cc(C(F)(F)F)nn2-c2ccc(S(N)(=O)=O)cc2)cc1 [Celecoxib] | 9.14 µM | – | 9.06 µM | – | – | 13.4 µM | 8.45 µM | 8.08 µM | – | – | 10.5 µM | 16.1 µM | 4.72 µM | – | 10.3 µM | 2.25 µM | 34 µM | – | 27.1 µM | 23.7 µM | EC20 STC bell shape [25]: 23.8 µM; EC10 STC bell shape [26]: 20.4 µM |
| CSc1nc2cc(Cl)c(Oc3cccc(Cl)c3Cl)cc2[nH]1 [Triclabendazole] | 0.516 µM | 1.27 µM | 0.448 µM | – | 1.72 µM | 0.644 µM | 0.481 µM | 0.462 µM | – | 1.42 µM | 0.512 µM | 0.829 µM | 0.364 µM | – | 0.345 µM | 0.19 µM | 1.92 µM | 2.05 µM | 1.6 µM | 1.44 µM | EC10 Pigmentation increase [3]: 0.654 µM; EC10 LMR ligth decrease [27]: 0.783 µM; EC20 STC decrease [28]: 0.00782 µM; EC10 Head trunk angle Decrease [20]: 1.39 µM; EC20 LMR ligth decrease [29]: 0.792 µM; EC20 Pigmentation increase [7]: 0.667 µM; EC10 STC decrease [30]: 0.00111 µM; EC50 Heart rate ([14]; exposure time: 2 dpf): 3.71 µM; EC50 Heart rate ([14]; exposure time: 4 dpf): 1.11 µM; EC20 Head trunk angle Decrease [24]: 1.6 µM |
| CC(C)(C)C(O)/C(=C/c1ccc(Cl)cc1Cl)n1cncn1 (configuration not stated) [Diniconazole] | – | 6.22 µM | 2.97 µM | 3.64 µM | 7.85 µM | 5.05 µM | – | – | 5.99 µM | 6.78 µM | 3.61 µM | 6.61 µM | 7 µM | 4.37 µM | 4.6 µM | 5.23 µM | – | 4.5 µM | 7.3 µM | 6.17 µM | EC10 Pigmentation increase [3]: 2.49 µM; EC10 LMR ligth decrease [27]: 0.478 µM; EC10 Head trunk angle Decrease [20]: 2.62 µM; EC50 Mandibular arch distance Decrease [31]: 6.4 µM; EC20 LMR ligth decrease [29]: 0.855 µM; EC10 Mandibular arch distance Decrease [32]: 1.96 µM; EC20 Pigmentation increase [7]: 4.99 µM; EC20 STC increase [8]: 7.82 µM; EC50 Heart rate ([14]; exposure time: 4 dpf): 11.3 µM; EC10 STC increase [15]: 6.86 µM; EC20 Head trunk angle Decrease [24]: 3.2 µM; EC20 Mandibular arch distance Decrease [33]: 3.04 µM |
| CCCCC(O)(Cn1cncn1)c1ccc(Cl)cc1Cl (configuration not stated) [Hexaconazole] | 10.3 µM | 44.9 µM | 10.7 µM | 33.8 µM | 56.1 µM | 15.1 µM | 7.52 µM | 6.28 µM | 54.3 µM | 48.8 µM | 12.2 µM | 14.8 µM | 11.1 µM | 40.3 µM | 8.31 µM | 5.53 µM | 22.6 µM | 23.3 µM | 19.4 µM | 17.8 µM | EC10 Head trunk angle Decrease [20]: 12.8 µM; EC50 Mandibular arch distance Decrease [31]: 37.1 µM; EC20 STC bell shape [25]: 19.2 µM; EC10 Mandibular arch distance Decrease [32]: 19.8 µM; EC50 Heart rate ([14]; exposure time: 2 dpf): 39.8 µM; EC10 STC bell shape [26]: 17.5 µM; EC20 Head trunk angle Decrease [24]: 16 µM; EC20 Mandibular arch distance Decrease [33]: 24.9 µM |
